Series [1] deals with T1, HsPrx3 (human peroxiredoxin 3, wtHsPrx3) (Homo sapiens, UniProt P30048).
T1 construct: gene PRDX3; three additional N-terminal Gly; E. coli BL21 Star (DE3); reduced subunit predicted 21,797 Da; three Cys; dodecamer when reduced
T1 sequence (P30048 62-256): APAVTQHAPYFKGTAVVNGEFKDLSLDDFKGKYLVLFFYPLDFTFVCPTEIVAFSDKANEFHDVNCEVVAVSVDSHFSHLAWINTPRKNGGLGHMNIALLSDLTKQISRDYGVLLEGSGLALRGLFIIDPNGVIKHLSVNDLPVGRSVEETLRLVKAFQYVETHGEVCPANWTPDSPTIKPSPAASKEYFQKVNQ
In words: stopped-flow intrinsic fluorescence, slope of kobs of second phase. The series is classed as biochemical. To be noted: rate constant of peroxidatic Cys hyperoxidation; covalent oxidation, inactivating; pH 7.8, 11–12 °C, 50 mM sodium phosphate, 0.1 mM DTPA. From the text:
stopped-flow intrinsic fluorescence, slope of kobs of second phase on HsPrx3 (human peroxiredoxin 3, wtHsPrx3)

Series [2] concerns the target T1, HsPrx3 (human peroxiredoxin 3, wtHsPrx3). In words: thermal unfolding by intrinsic fluorescence. Type of series: binding. The note with it: reduced HsPrx3 4 µM, AA 10 µM, 2 mM DTT, 50 mM phosphate, 0.1 mM DTPA, pH 7.8.
Series [3] has the same target. As to the kind of experiment: intrinsic tryptophan fluorescence quenching / FRET titration, hyperbolic fit. The series is classed as binding.
Series [4] concerns the molecule itself. As to the kind of experiment: ESI mass spectrometry of the intact protein after C4 HPLC; reduced HsPrx3 (10 µM) in 50 mM phosphate buffer plus 0.1 mM DTPA, pH 7.8, 25 °C, exposed to H2O2 (20 µM) or 15(S)-HpEPE (10 or 20 µM), alkylated with 2-iodoacetamide (5 mM); disulfide-bonded dimer.

`CC/C=C\C[C@@H](/C=C/C=C\C/C=C\C/C=C\CCCC(=O)O)OO` [15(S)-HpEPE, 15S-hydroperoxy-5Z,8Z,11Z,13E,17Z-eicosapentaenoic acid]: the “khyperox. (M^-1s^-1)” value in series [1] is on record as “(2.6 ± 0.4) × 10^7 M^−1s^−1”.
The same measure, in the same setting: then `CCCCC[C@@H](/C=C/C=C\C/C=C\C/C=C\CCCC(=O)O)OO` [15(S)-HpETE, 15S-hydroperoxy-5Z,8Z,11Z,13E-eicosatetraenoic acid], with “(1.7 ± 0.1) × 10^7 M^−1s^−1”.
With `CCCCC/C=C\C/C=C\C/C=C\C/C=C\CCCC(=O)O` [AA], the Tm shift in series [2] was ~ 4 °C.
For orientation: Kd means the constant that tells how readily two partners part at equilibrium. Higher therefore signals a looser complex. Turning to `O=S(=O)(O)c1cccc2cccc(Nc3ccccc3)c12` [ANS, 8-anilino-1-naphtalene sulfonic acid], the Kd in series [3] is 65 ± 4 µM.
Regarding `CCCCC[C@@H](/C=C/[C@@H]1[C@@H](C/C=C\CCCC(=O)O)[C@@H]2C[C@H]1OO2)OO` [PGG2, 9α,11α-epidioxy-15S-hydroperoxy-prosta-5Z,13E-dien-1-oic acid], the “khyperox. (M^-1s^-1)” value in series [1] is on record as “(3.1 ± 0.7) × 10^5 M^−1s^−1”.

B1: Human peroxiredoxin 3 (wild type, recombinant, lacking the mitochondrial targeting sequence) (enzyme)
chain: GGGAPAVTQHAPYFKGTAVVNGEFKDLSLDDFKGKYLVLFFYPLDFTFVCPTEIVAFSDKANEFHDVNCEVVAVSVDSHFSHLAWINTPRKNGGLGHMNIALLSDLTKQISRDYGVLLEGSGLALRGLFIIDPNGVIKHLSVNDLPVGRSVEETLRLVKAFQYVETHGEVCPANWTPDSPTIKPSPAASKEYFQKVNQ
notes: predicted molecular weight of the reduced subunit 21,797 Da; Samples were alkylated (NEM or 2-iodoacetamide) before analysis; also called HsPrx3; wtHsPrx3; source: E. coli BL21 Star (DE3), purified as previously reported [13]
By stoichiometry N is commonly meant the number of molecules, sites or subunits per partner or assembly. Regarding B1, the “stoichiometry N” value in series [4] turned out to be 2.
